Patent publication US20230033360A1, “COMPOUNDS AS CD73 INHIBITORS” (BioArdis LLC, priority 2019, published 2023)

Each molecule was assayed against T1, Recombinant Human 5′-Nucleotidase (CD73) (Homo sapiens, UniProt P21589) (assay: CD73 Enzyme Assay (PiColorLock inorganic phosphate detection, AMP substrate)). Conditions: human CD73 0.5 nM, AMP 30 μM, 20 min at 37° C., absorbance 635 nm; read-out: Potency (IC50).
T1 construct: CHO derived CD73 (Trp27-Lys547), with a C-terminal 6-His tag; 6-His (C); purchased R&D 5795-EN; host or cells: CHO
T1 sequence (P21589 27-547): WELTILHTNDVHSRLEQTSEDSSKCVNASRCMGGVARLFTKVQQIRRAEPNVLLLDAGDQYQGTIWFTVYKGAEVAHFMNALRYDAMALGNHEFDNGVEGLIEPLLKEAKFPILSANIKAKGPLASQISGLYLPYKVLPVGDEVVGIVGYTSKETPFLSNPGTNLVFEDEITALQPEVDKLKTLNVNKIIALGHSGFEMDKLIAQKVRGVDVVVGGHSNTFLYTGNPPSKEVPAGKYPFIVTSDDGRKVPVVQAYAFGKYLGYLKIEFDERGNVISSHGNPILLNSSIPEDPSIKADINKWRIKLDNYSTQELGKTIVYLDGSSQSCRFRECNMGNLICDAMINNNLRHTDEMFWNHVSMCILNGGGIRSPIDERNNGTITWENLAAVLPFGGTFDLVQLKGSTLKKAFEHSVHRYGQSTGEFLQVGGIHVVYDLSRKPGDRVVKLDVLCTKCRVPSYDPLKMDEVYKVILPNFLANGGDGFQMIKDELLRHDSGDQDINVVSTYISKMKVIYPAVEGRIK
Assay type: biochemical
Description: Soluble recombinant CD73 catalyzes the conversion of adenosine monophosphate (AMP) to adenosine and inorganic phosphate. The phosphate detection reagent, PiColorLock™ (Innova Bioscience, Cat #303-0125) is based on the change in absorbance of the dye malachite green in the presence of inorganic phosphate (Pi) and this property can be exploited to measure any enzyme that generates Pi. Recombinant Human 5′-Nucleotidase (CD73) (R&D #5795-EN, CHO derived CD73 (Trp27-Lys547), with a C-terminal 6-His tag) was used in the enzymatic assay. This assay, run in a 384-well plate format (Corning® NBS™ 384 well plates, Cat #3640), is a generic method for measuring inorganic phosphate. The basic assay procedure involves two steps: 1) Enzyme reaction: The CD73 enzyme (R&D #5795-EN) is incubated in the presence or absence of compounds. AMP (sigma, cat #01930) is added to start the […] reaction. 2) Detection step: Gold mix is added to the assay system, then stabilizers are added. After incubation the absorbance of the solution is read at OD 635 nm. The recorded OD signal is proportional to the enzyme activity.
Briefly, 25 μl human CD73 (0.5 nM final concentration) in the enzymatic buffer solutions (20 mM Tris, 25 mM NaCl, 1 mM MgCl2, pH 7.5, 0.005% Tween-20) were mixed with various concentrations of the test compound (dissolved in 100% DMSO). These solutions were incubated for 15 min at 25° C., and subsequently 25 μl AMP (30 μM final concentration) was added to start the reaction. The final reaction mixture of enzyme-substrate-compound was incubated for 20 min at 37° C. Meanwhile ‘Gold mix’ was prepared shortly before use by adding 1/100 vol. of accelerator to the PiColorLock™ Gold reagent. 12 μL/well of the ‘Gold mix’ was added to assay plate containing 50 μL enzyme reaction buffer and incubated at 25° C. for 5 min. 5 μL/well stabilizer was added to the assay plate and incubated at 25° C. for 30 min. The absorbance of the well solutions was measured at 635 nm on a Spark 10M instrument (TECAN).
The percent (%) inhibition at each concentration of a compound was calculated relative to the […] value in the Max and Min control wells contained within each assay plate. The Max control wells contained enzyme and substrate as 0% inhibition, and the Min control wells only contained substrate without enzyme as 100% inhibition. The concentrations and percent inhibition values for a test compound are plotted and the concentration of the compound required to achieve 50% inhibition (IC50) was determined with a four-parameter logistic dose response equation.

Structure (SMILES)	IC50
O=P(O)(O)CP(=O)(O)OC[C@H]1O[C@@H](c2cnc3c(NC4CCCC4)cc(Cl)nn23)[C@H](O)[C@@H]1O [Example S1, (((((2R,3S,4R,5S)-5-(6-chloro-8-(cyclopentylamino)imidazo[1,2-b]pyridazin-3-yl)-3,4-dihydroxytetrahydrofuran-2-yl)methoxy)(hydroxy)phosphoryl)methyl)phosphonic acid]	1 to 9.9 nM
C[C@H](Nc1cc(Cl)nn2c([C@@H]3O[C@H](COP(=O)(O)CP(=O)(O)O)[C@@H](O)[C@H]3O)cnc12)c1ccccc1F [Example S2, [({[(2R,3S,4R,5S)-5-(6-chloro-8-{[(1S)-1-(2-fluorophenyl)ethyl]amino}imidazo[1,2-b]pyridazin-3-yl)-3,4-dihydroxyoxolan-2-yl]methoxy}(hydroxy)phosphoryl)methyl]phosphonic acid]	1 to 9.9 nM
O=P(O)(O)CP(=O)(O)OC[C@H]1O[C@@H](c2cnc3c(N4CC5CCCC5C4)cc(Cl)nn23)[C@H](O)[C@@H]1O (stereo partly drawn) [Example S4, (((((2R,3S,4R,5S)-5-(6-chloro-8-(hexahydrocyclopenta[c]pyrrol-2 (1H)-yl)imidazo[1,2-b]pyridazin-3-yl)-3,4-dihydroxytetrahydrofuran-2-yl)methoxy)(hydroxy)phosphoryl)methyl) phosphonic acid]	< 1 nM
O=P(O)(O)CP(=O)(O)OC[C@H]1O[C@@H](c2cnc3c(NC4CCCCC4)cc(Cl)nn23)[C@H](O)[C@@H]1O [Example S5, (((((2R,3S,4R,5S)-5-(6-chloro-8-(cyclohexylamino)imidazo[1,2-b]pyridazin-3-yl)-3,4-dihydroxytetrahydrofuran-2-yl)methoxy)(hydroxy)phosphoryl)methyl)phosphonic acid]	1 to 9.9 nM
O=P(O)(O)CP(=O)(O)OC[C@H]1O[C@@H](c2cnc3c(NC4CC5CCC4C5)cc(Cl)nn23)[C@H](O)[C@@H]1O (stereo partly drawn) [Example S6, (((((2R,3S,4R,5S)-5-(8-(bicyclo[2.2.1]heptan-2-ylamino)-6-chloroimidazo[1,2-b]pyridazin-3-yl)-3,4-dihydroxytetrahydrofuran-2-yl)methoxy)(hydroxy)phosphoryl)methyl)phosphonic acid]	1 to 9.9 nM

Next, values leading:

IC50	Structure (SMILES)
1 to 9.9 nM	O=P(O)(O)CP(=O)(O)OC[C@H]1O[C@@H](c2cnc3c(N4CCC[C@H]4c4ccccc4)cc(Cl)nn23)[C@H](O)[C@@H]1O [Example S3, (((((2R,3S,4R,5S)-5-(6-chloro-8-((S)-2-phenylpyrrolidin-1-yl)imidazo[1,2-b]pyridazin-3-yl)-3,4-dihydroxytetrahydrofuran-2-yl)methoxy)(hydroxy)phosphoryl)methyl)phosphonic acid]
1 to 9.9 nM	O=P(O)(O)CP(=O)(O)OC[C@H]1O[C@@H](c2ncc3c(NC4CCCC4)cc(Cl)nn23)[C@H](O)[C@@H]1O [Example S7, (((((2R,3S,4R,5S)-5-(2-chloro-4-(cyclopentylamino)imidazo[1,5-b]pyridazin-7-yl)-3,4-dihydroxytetrahydrofuran-2-yl)methoxy)(hydroxy)phosphoryl)methyl)phosphonic acid]
1 to 9.9 nM	O=P(O)(O)CP(=O)(O)OC[C@H]1O[C@@H](c2ncc3c(N4CCC[C@H]4c4ccccc4)cc(Cl)nn23)[C@H](O)[C@@H]1O [Example S8, (((((2R,3S,4R,5S)-5-(2-chloro-4-((S)-2-phenylpyrrolidin-1-yl)imidazo[1,5-b]pyridazin-7-yl)-3,4-dihydroxytetrahydrofuran-2-yl)methoxy)(hydroxy)phosphoryl)methyl)phosphonic acid]
< 1 nM	O=P(O)(O)CP(=O)(O)OC[C@H]1O[C@@H](c2ncc3c(N4CC5CCCC5C4)cc(Cl)nn23)[C@H](O)[C@@H]1O (stereo partly drawn) [Example S9, [({[(2R,3S,4R,5S)-5-(2-chloro-4-{hexahydro-1H-cyclopenta[c]pyrrol-2-yl}imidazo[1,5-b]pyridazin-7-yl)-3,4-dihydroxyoxolan-2-yl]methoxy}(hydroxy)phosphoryl)methyl]phosphonic acid]
